Among the test systems are HCT-15; CCRF-CEM; NCI-H23; SN12C; SF-295; SK-OV-3; TK-10; SF-539; NCI-H460; K562; HOP-92; 786-0; OVCAR-8; KM12; SR; MOLT-4; RXF 393; A498; NCI/ADR-RES; MDA-N.
Experiment in all cases: NCI anticancer screen, dose series, 48 h

The record followed here is ChEMBL document CHEMBL1201862, “PubChem BioAssay data set” (2004).

Each structure is given as a SMILES string.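 Method: 48-hour compound exposure of cells in 96-well plates, five concentrations, linear interpolation of endpoints. GI50: concentration for 50% inhibition of growth.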 The source made the active and inactive calls. Rule as the data show it: active = GI50 up to about 1.1 µM and inactive = higher.

For the molecule `CN(C)CCCn1c2c3ccccc3ccc2c2oc(=O)c3ccccc3c21`, the GI50 was 1.57 µM in the assay with HCT-15; 3.31 µM (inactive) in the assay with CCRF-CEM; 6.82 µM (inactive) in the assay with NCI-H23; 5.62 µM (inactive) in the assay with SN12C; 3.62 µM (inactive) in the assay on SF-295; 14.8 µM (inactive) in the assay with SK-OV-3. Further, the GI50 is 14.2 µM (inactive) in the assay with TK-10; 4.66 µM (inactive) in the assay on SF-539; 2.05 µM (inactive) in the assay on NCI-H460; 2.45 µM (inactive) in the assay with K562; 23.8 µM (inactive) in the assay with HOP-92; 2.64 µM (inactive) in the assay with 786-0. Besides, the GI50 in the assay with OVCAR-8 was 3.57 µM (inactive); in the assay with KM12, 3.83 µM (inactive); in the assay with SR, 0.914 µM (active); in the assay with MOLT-4, 0.986 µM (active); in the assay on RXF 393, 1.33 µM (inactive); with A498, 13.3 µM (inactive). In the assay on NCI/ADR-RES, the GI50 is 10.8 µM (inactive).
As for `O=C1/C(=C\c2ccccc2)CN(C(=O)CCN2CCCCC2)C/C1=C/c1ccccc1`, the GI50 is 1.09 µM in the assay with HCT-15; 0.198 µM (active) in the assay with CCRF-CEM; 1.89 µM (inactive) in the assay with NCI-H23; 0.966 µM (active) with SN12C; 1.67 µM (inactive) in the assay on SF-295; 4.01 µM (inactive) in the assay on SK-OV-3. In addition, the GI50 in the assay on TK-10 was 3.93 µM (inactive); with SF-539, 3.25 µM (inactive); with NCI-H460 it was 2.35 µM (inactive); in the assay on K562, 0.179 µM (active); in the assay with HOP-92, 3.55 µM (inactive); with 786-0, 1.3 µM (inactive). Also, the GI50 in the assay with OVCAR-8 is 0.869 µM (active); with KM12 it was 0.379 µM (active); with SR, 0.315 µM (active); in the assay on MOLT-4, 0.231 µM (active); with MDA-N, 1.19 µM (inactive); in the assay on RXF 393, 1.95 µM (inactive). Further, the GI50 in the assay with A498 was 2.69 µM (inactive).
`Nc1nc(Cl)c2ncn(Cc3cccc(CCl)c3)c2n1`: the GI50 in the assay on HCT-15 was 2.12 µM; in the assay with CCRF-CEM, 3.18 µM (inactive); in the assay with NCI-H23, 1.87 µM (inactive); in the assay with SN12C, 8.05 µM (inactive); in the assay on SF-295, 7.01 µM (inactive); in the assay with SK-OV-3, 20 µM (inactive). In addition, the GI50 in the assay on TK-10 is 6.31 µM (inactive); in the assay with SF-539 it was 5.24 µM (inactive); in the assay on NCI-H460, 3.87 µM (inactive); with K562 it was 4.38 µM (inactive); with HOP-92, 1.64 µM (inactive); in the assay on 786-0 it was 5.37 µM (inactive). The GI50 in the assay with OVCAR-8 is 3.24 µM (inactive); in the assay on KM12 it was 4.53 µM (inactive); in the assay with SR, 1.74 µM (inactive); with MOLT-4, 3.6 µM (inactive); with RXF 393, 2.61 µM (inactive); in the assay on A498, 25 µM (inactive). Besides, in the assay on NCI/ADR-RES, the GI50 was 3.47 µM (inactive).
Turning to `O=C(N=C1N(c2ccccc2)C(=O)C(=O)N1c1ccccc1)c1ccccc1`, the GI50 in the assay with HCT-15 was 9.66 µM; with CCRF-CEM it was 24.8 µM (inactive); in the assay on NCI-H23, 13.6 µM (inactive); in the assay with SN12C, 10.6 µM (inactive); in the assay on SF-295, 11.3 µM (inactive); in the assay on SK-OV-3, 4.68 µM (inactive). Also, the GI50 is 15.3 µM (inactive) with TK-10; 12.6 µM (inactive) with SF-539; 11.7 µM (inactive) in the assay with NCI-H460; 29.2 µM (inactive) with K562; 2.99 µM (inactive) in the assay with HOP-92; 3.68 µM (inactive) in the assay on 786-0. The GI50 with OVCAR-8 is 9.35 µM (inactive); with KM12, 17.3 µM (inactive); in the assay with SR it was 7.46 µM (inactive); in the assay on MOLT-4, 15.5 µM (inactive); with RXF 393, 3.58 µM (inactive); in the assay on A498, 18.2 µM (inactive). In the assay on NCI/ADR-RES, the GI50 is 11 µM (inactive).
